Assay results taken from patent publication US7820837B2, “Condensed ring compound” (Takeda Pharmaceutical Company Limited, priority 2003, dated 2010).

What follows are compounds tested against T1, human GPR40 (Homo sapiens, UniProt O14842) (assay: Determination of EC50 on human GPR40 (intracellular calcium change by FLIPR in CHO cells stably expressing human GPR40)). Conditions: CHO cell line stably expressing human GPR40; changes in intracellular calcium concentration measured by FLIPR (Fluo3-AM); read-out: EC50 (Receptor Function Modulating Action on GPR40).
T1 construct: expressed in transfected cells
Format: cell-based
Procedure: Determination of EC50 of the Compound of Example on Human GPR40
For determination of EC50, CHO cell line that stably expressed human GPR40 was used. Unless otherwise indicated, the CHO cell line was cultured using α-MEM medium (Invitrogen) containing 10% fetal calf serum (Invitrogen).
The cells cultured to nearly confluent were rinsed with PBS (Invitrogen) on the previous day of the assay, peeled off with 0.05% Trypsin•EDTA solution (Invitrogen) and recovered by centrifugation. The number of the obtained cells was counted, and the cells were diluted such that 3×10^5 cells were contained per 1 mL of the medium, dispensed to a Black welled 96-well plate (coster) by 100 μL per well and cultured overnight in a CO2 incubator. Various test samples were added to the CHO cells thus prepared, and the changes in the intracellular calcium concentration were measured using FLIPR (Molecular Device). The below-mentioned pre-treatment was applied to measure changes in the intracellular calcium concentration by FLIPR.
An assay buffer for adding a fluorescence dye Fluo3-AM (DOJIN) to the cells, or for washing the cells immediately before FLIPR assay was prepared. To a solution of 1M HEPES (pH 7.4, DOJIN, 20 mL) added to HBSS (Invitrogen, 1000 mL) (hereinafter HBSS/HEPES solution) was added a solution (10 mL) obtained by dissolving probenecid (Sigma, 710 mg) in 1N NaOH (5 mL), and adding and mixing an HBSS/HEPES solution (5 mL), and the resulting solution was used as an assay buffer. Fluo3-AM (50 μg) was dissolved in dimethyl sulfoxide (Wako, 21 μL), and an equivalent amount of 20% pluronic acid (Molecular Probes) was added and mixed. The solution was added to the assay buffer (10.6 mL) supplemented with fetal calf serum (105 μL) to give a fluorescence dye solution. On the previous day of assay, the medium of the CHO cells newly inoculated to the Black welled 96-well plate was removed, the fluorescence dye solution was immediately dispensed by 100 μL per well and the cells were cultured in a CO2 incubator for 1 hr to allow intake of the fluorescence dye by the cells. The cells after the culture were washed with the above-mentioned assay buffer and set on FLIPR. The test sample was diluted with DMSO in advance, dispensed to polypropylene 96-well plate (sample plate) by 2 μL, and cryopreserved at −20° C. To the thawed sample plate was added an assay buffer containing 0.015% CHAPS (DOJIN) by 198 μL, and simultaneously set on FLIPR together with the cell plate. After the aforementioned pre-treatment, changes in the intracellular calcium concentration upon addition of various test samples were measured by FLIPR.

T1 sequence (O14842 whole entry): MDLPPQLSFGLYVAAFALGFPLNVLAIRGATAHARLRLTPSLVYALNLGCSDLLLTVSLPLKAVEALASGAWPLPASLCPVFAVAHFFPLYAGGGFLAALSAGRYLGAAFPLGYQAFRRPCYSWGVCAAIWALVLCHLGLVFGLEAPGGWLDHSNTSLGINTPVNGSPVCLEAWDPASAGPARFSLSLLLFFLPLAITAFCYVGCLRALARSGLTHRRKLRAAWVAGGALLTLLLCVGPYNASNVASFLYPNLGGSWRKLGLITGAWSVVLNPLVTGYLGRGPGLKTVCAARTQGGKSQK

SMILES	EC50
O=C(O)CC1CCCc2cc(OCc3cccc(Oc4ccccc4)c3)ccc21 (stereo not drawn) [Example 6, (6-((3-phenoxybenzyl)oxy)-1,2,3,4-tetrahydro-1-naphthalenyl)acetic acid]	< 100 nM
Cc1cccc(C)c1-c1cccc(COc2ccc3c(c2)CCCC3CC(=O)O)c1 (stereo not drawn) [Example 11, {6-[(2′,6′-dimethylbiphenyl-3-yl)methoxy]-1,2,3,4-tetrahydronaphthalen-1-yl}acetic acid]	< 100 nM
Cc1cccc(C)c1-c1cccc(COc2ccc3c(c2)OCCC(C(=O)O)C3)c1 (stereo not drawn) [Example 13, 8-[(2′,6′-dimethylbiphenyl-3-yl)methoxy]-2,3,4,5-tetrahydro-1-benzoxepine-4-carboxylic acid]	< 100 nM
O=C(O)CC1CCc2cc(OCc3cccc(Oc4ccccc4)c3)ccc21 (stereo not drawn) [Example 15, {5-[(3-phenoxybenzyl)oxy]-2,3-dihydro-1H-inden-1-yl}acetic acid]	< 100 nM
Cc1cccc(C)c1-c1cccc(COc2ccc3c(c2)CCC3CC(=O)O)c1 (stereo not drawn) [Example 17, {5-[(2′,6′-dimethylbiphenyl-3-yl)methoxy]-2,3-dihydro-1H-inden-1-yl}acetic acid]	< 100 nM
Cc1cccc(C)c1-c1cccc(COc2ccc3c(c2)CCCCC3CC(=O)O)c1 (stereo not drawn) [Example 25, {2-[(2′,6′-dimethylbiphenyl-3-yl)methoxy]-6,7,8,9-tetrahydro-5H-benzo[7]annulen-5-yl}acetic acid]	< 1000 nM
Cc1cccc(C)c1-c1cccc(COc2ccc3c(c2)OCC3CC(=O)O)c1 (stereo not drawn) [Example 33, {6-[(2′,6′-dimethylbiphenyl-3-yl)methoxy]-2,3-dihydro-1-benzofuran-3-yl}acetic acid]	< 100 nM
CCCCOCCOc1ccc(-c2cccc(COc3ccc4c(c3)OCC4CC(=O)O)c2)c(C)c1 (stereo not drawn) [Example 58, (6-{[4′-(2-butoxyethoxy)-2′-methylbiphenyl-3-yl]methoxy}-2,3-dihydro-1-benzofuran-3-yl)acetic acid]	< 100 nM
Cc1cc(OCc2ccccc2)cc(C)c1-c1cccc(COc2ccc3c(c2)OCC3CC(=O)O)c1 (stereo not drawn) [Example 70, (6-{[4′-(benzyloxy)-2′,6′-dimethylbiphenyl-3-yl]methoxy}-2,3-dihydro-1-benzofuran-3-yl)acetic acid]	< 100 nM
Cc1cccc(C)c1-c1cc(COc2ccc3c(c2)OCC3CC(=O)O)ccc1OCc1ccccc1 (stereo not drawn) [Example 75, (6-{[6-(benzyloxy)-2′,6′-dimethylbiphenyl-3-yl]methoxy}-2,3-dihydro-1-benzofuran-3-yl)acetic acid]	< 100 nM
O=C(O)CC1CCCc2nc(SCc3cccc(Oc4ccccc4)c3)sc21 (stereo not drawn) [Example 78, {2-[(3-phenoxybenzyl)thio]-4,5,6,7-tetrahydro-1,3-benzothiazol-7-yl}acetic acid]	< 100 nM
C/C(=C\COc1ccc2c(c1)OCC2CC(=O)O)c1ccc2c(c1)CCCC2 (stereo not drawn) [Example 125, (6-{[(2E)-3-(5,6,7,8-tetrahydro-2-naphthalenyl)-2-buten-1-yl]oxy}-2,3-dihydro-1-benzofuran-3-yl)acetic acid]	< 1000 nM

Continued, values first:

EC50	SMILES
< 1000 nM	CCCN(Cc1ccc(COc2ccc3c(c2)CCCC3CC(=O)O)cc1)c1nc(-c2ccccc2)cs1 (stereo not drawn) [Example 19, {6-[(4-{[(4-phenyl-1,3-thiazol-2-yl)(propyl)amino]methyl}benzyl)oxy]-1,2,3,4-tetrahydronaphthalen-1-yl}acetic acid]
< 1000 nM	CCCN(Cc1ccc(COc2ccc3c(c2)OCCC(C(=O)O)C3)cc1)c1nc(-c2ccccc2)cs1 (stereo not drawn) [Example 21, 8-[(4-{[(4-phenyl-1,3-thiazol-2-yl)(propyl)amino]methyl}benzyl)oxy]-2,3,4,5-tetrahydro-1-benzoxepine-4-carboxylic acid]
< 100 nM	CCCN(Cc1ccc(COc2ccc3c(c2)OCC3CC(=O)O)cc1)c1nc(-c2ccccc2)cs1 (stereo not drawn) [Example 35, {6-[(4-{[(4-phenyl-1,3-thiazol-2-yl)(propyl)amino]methyl}benzyl)oxy]-2,3-dihydro-1-benzofuran-3-yl}acetic acid]
< 100 nM	Cc1ccc2ccccc2c1-c1cccc(COc2ccc3c(c2)OCC3CC(=O)O)c1 (stereo not drawn) [Example 47, (6-{[3-(2-methyl-1-naphthyl)benzyl]oxy}-2,3-dihydro-1-benzofuran-3-yl)acetic acid]
< 100 nM	O=C(O)CC1COc2cc(OCc3ccc(Cn4c(-c5ccccc5)cc5ccccc54)cc3)ccc21 (stereo not drawn) [Example 66, [6-({4-[(2-phenyl-1H-indol-1-yl)methyl]benzyl}oxy)-2,3-dihydro-1-benzofuran-3-yl]acetic acid]
< 1000 nM	O=C(O)CC1COc2cc(OCc3ccc(CN(CCc4ccccc4)c4nc(-c5ccccc5)cs4)cc3)ccc21 (stereo not drawn) [Example 73, calcium {6-[(4-{[(2-phenylethyl)(4-phenyl-1,3-thiazol-2-yl)amino]methyl}benzyl)oxy]-2,3-dihydro-1-benzofuran-3-yl}acetate]
